Measurements as given in the NIST ThermoML archive (doi:10.1021/acs.jced.7b00236).
Where “and” joins values, the source holds several entries; their conditions need not be identical. Equal values may be shown once. Numbers after ± are expanded uncertainties.

Conditions: Liquid, Ebulliometric method (Recirculating still)

## CC(C)CC(C)(C)C [2,2,4-trimethylpentane]
303.15 K
  vapor or sublimation pressure: 8.33 ± 0.14 kPa
308.15 K
  vapor or sublimation pressure: 10.44 ± 0.14 kPa
313.15 K
  vapor or sublimation pressure: 12.97 ± 0.14 kPa
318.15 K
  vapor or sublimation pressure: 15.98 ± 0.15 kPa
323.15 K
  vapor or sublimation pressure: 19.54 ± 0.15 kPa

## CCOC(=O)OCC [diethyl carbonate]
303.15 K
  vapor or sublimation pressure: 1.95 ± 0.14 kPa and 1.99 ± 0.14 kPa
308.15 K
  vapor or sublimation pressure: 2.61 ± 0.14 kPa and 2.65 ± 0.14 kPa
313.15 K
  vapor or sublimation pressure: 3.43 ± 0.14 kPa and 3.45 ± 0.14 kPa
318.15 K
  vapor or sublimation pressure: 4.46 ± 0.14 kPa and 4.51 ± 0.14 kPa
323.15 K
  vapor or sublimation pressure: 5.75 ± 0.14 kPa and 5.83 ± 0.14 kPa

## CCCCCCC [heptane]
303.15 K
  vapor or sublimation pressure: 7.79 ± 0.14 kPa
308.15 K
  vapor or sublimation pressure: 9.85 ± 0.14 kPa
313.15 K
  vapor or sublimation pressure: 12.34 ± 0.14 kPa
318.15 K
  vapor or sublimation pressure: 15.33 ± 0.15 kPa
323.15 K
  vapor or sublimation pressure: 18.9 ± 0.15 kPa

## Cc1ccccc1 [toluene]
303.15 K
  vapor or sublimation pressure: 4.87 ± 0.14 kPa
308.15 K
  vapor or sublimation pressure: 6.32 ± 0.14 kPa
313.15 K
  vapor or sublimation pressure: 7.78 ± 0.14 kPa
318.15 K
  vapor or sublimation pressure: 9.89 ± 0.14 kPa
323.15 K
  vapor or sublimation pressure: 12.27 ± 0.14 kPa
